Calls of active or inactive are those of the source.
Assays:
[1] = viability of uninfected HEp-2 cells – cell-based, HTS, cytotoxicity control for RSV inhibitor project, dose response (AID 2410); type: functional; conditions: human respiratory syncytial virus
DLD-1 [2] = experiment: DLD-1 cell viability reduction – luminescence, round 1, cytotoxicity control for KLF5 inhibitor project, late-stage follow-up (AID 485338); type: functional, cell-based; conditions: Homo sapiens
DLD-1 [3] = experiment: KLF5 protein lowering by immunoblot – western blot, chemiluminescence, DLD-1 cells, titration, orthogonal assay for KLF5 inhibitor project, late-stage follow-up (AID 485336); type: functional, cell-based; conditions: Homo sapiens
[4] = Luminescence Cell-Based Dose Retest to Confirm Inhibitors of Cancer Stem Cells. [Related pubchem assays (depositor defined):AID2717, AID2721]; type: functional; conditions: Homo sapiens
[5] = Luminescence-based counterscreen assay for KLF5 inhibitors: dose response cell-based high throughput screening assay to identify cytotoxic compounds using the IEC-6 intestinal epithelial cell line. [Related pubchem assays: 1700 (Primary screen.), 1834 (Confirmation screen.), 1858 (Summary AID.), 1905 (Counterscreen.)]; type: functional
Streptococcus = experiment: GAS UMAA2166 growth inhibition – luminescence, BacTiterGlo, counter-screen for streptokinase expression inhibitor project, dose response (AID 1915); type: functional, organism-based;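 note: potency for reduction of bacterial viability or growth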
[6] = test system: Streptococcus sp. 'group A'; experiment: Streptococcus pyogenes SK(-)GAS viability under kanamycin – luminescence, BacTiterGlo, confirmation, counter-screen for streptokinase expression inhibitor project, dose response (AID 1900); type: functional, organism-based
Coagulation factor XII = target: T1, Coagulation factor XII (Homo sapiens, UniProt P00748); experiment: Factor XIIa Dose Response Confirmation from Single Well HTS. [Related pubchem assays (depositor defined):AID701]; type: functional
T1 sequence (P00748 whole entry): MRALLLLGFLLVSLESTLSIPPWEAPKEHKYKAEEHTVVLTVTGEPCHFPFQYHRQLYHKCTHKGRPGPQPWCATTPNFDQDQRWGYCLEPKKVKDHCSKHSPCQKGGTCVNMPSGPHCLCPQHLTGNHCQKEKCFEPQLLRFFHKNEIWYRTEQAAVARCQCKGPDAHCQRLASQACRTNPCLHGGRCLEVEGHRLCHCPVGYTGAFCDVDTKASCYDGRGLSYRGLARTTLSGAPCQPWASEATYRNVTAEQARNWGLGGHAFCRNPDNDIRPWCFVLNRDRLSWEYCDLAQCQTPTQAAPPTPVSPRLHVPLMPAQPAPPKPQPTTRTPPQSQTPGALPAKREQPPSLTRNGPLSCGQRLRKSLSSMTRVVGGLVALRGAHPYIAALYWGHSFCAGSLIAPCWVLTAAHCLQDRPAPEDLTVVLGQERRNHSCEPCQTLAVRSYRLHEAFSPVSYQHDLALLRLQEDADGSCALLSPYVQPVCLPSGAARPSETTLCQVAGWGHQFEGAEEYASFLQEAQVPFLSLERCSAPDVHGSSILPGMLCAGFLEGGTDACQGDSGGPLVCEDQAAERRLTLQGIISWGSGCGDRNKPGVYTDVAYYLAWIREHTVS

[7] = target: T2, G-protein coupled receptor 55 (Homo sapiens, UniProt Q9Y2T6); experiment: blockade of LPI-induced GPR55 arrestin translocation – imaging, U2OS, beta-arrestin-GFP, LPI agonist, set 2, SAR follow-up (AID 2820); type: functional
T2 sequence (Q9Y2T6 whole entry): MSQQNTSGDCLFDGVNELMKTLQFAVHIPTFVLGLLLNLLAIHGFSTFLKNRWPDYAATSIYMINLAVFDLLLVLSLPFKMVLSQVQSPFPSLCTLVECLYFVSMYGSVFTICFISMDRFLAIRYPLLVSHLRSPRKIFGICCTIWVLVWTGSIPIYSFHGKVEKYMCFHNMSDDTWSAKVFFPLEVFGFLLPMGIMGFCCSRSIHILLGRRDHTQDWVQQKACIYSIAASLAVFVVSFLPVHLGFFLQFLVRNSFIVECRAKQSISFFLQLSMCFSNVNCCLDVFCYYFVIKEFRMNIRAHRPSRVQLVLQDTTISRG

Cannabinoid receptor 1 [8] = target: T3, Cannabinoid receptor 1 (Homo sapiens, UniProt P21554); experiment: SAR analysis of agonists of the Cannabinoid Receptor 1 using an Image-Based Assay - Set 2. [Related pubchem assays (depositor defined):AID2013, AID2026]; type: functional
T3 sequence (P21554 whole entry): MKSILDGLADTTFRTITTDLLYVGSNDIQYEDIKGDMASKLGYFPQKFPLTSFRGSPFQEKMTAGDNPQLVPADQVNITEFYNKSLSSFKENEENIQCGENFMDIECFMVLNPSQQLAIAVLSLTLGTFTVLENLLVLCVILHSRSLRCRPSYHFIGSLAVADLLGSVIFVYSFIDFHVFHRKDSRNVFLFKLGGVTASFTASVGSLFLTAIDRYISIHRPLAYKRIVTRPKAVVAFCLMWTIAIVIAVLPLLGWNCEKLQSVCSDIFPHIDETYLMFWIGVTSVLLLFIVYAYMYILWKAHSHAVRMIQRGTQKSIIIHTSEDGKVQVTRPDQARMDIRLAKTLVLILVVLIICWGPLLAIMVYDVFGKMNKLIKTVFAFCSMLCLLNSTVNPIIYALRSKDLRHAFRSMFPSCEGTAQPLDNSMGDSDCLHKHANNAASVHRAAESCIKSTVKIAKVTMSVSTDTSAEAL

Cannabinoid receptor 2 [9] = target: T4, Cannabinoid receptor 2 (Homo sapiens, UniProt P34972); experiment: SAR analysis of agonists of the Cannabinoid Receptor 2 using an Image-Based Assay. [Related pubchem assays (depositor defined):AID2013, AID2026]; type: functional
T4 sequence (P34972 whole entry): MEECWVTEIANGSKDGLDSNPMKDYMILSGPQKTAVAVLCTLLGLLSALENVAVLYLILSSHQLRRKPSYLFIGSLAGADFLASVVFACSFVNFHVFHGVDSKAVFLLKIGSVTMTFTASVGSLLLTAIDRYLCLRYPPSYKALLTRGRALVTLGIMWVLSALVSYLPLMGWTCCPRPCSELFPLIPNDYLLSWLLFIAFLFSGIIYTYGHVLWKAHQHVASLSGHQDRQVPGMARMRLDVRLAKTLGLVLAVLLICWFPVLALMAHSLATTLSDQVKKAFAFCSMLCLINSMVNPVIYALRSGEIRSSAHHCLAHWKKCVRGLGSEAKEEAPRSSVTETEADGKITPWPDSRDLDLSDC

[10] = target: T5, G-protein coupled receptor 35 (Homo sapiens, UniProt Q9HC97); experiment: SAR analysis of Agonists of the GPR35 Receptor using an Image-Based Assay - Set 2. [Related pubchem assays (depositor defined):AID2013, AID2026]; type: functional
T5 sequence (Q9HC97 whole entry): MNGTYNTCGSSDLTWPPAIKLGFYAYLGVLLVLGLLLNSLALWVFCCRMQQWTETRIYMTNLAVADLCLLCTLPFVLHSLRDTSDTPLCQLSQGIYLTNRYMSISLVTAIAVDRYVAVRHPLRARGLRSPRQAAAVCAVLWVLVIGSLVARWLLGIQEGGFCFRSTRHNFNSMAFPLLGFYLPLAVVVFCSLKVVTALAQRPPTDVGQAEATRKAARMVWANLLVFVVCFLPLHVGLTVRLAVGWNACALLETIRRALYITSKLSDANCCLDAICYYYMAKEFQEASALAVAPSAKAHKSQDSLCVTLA

Cannabinoid receptor 1 [11] = target: T3, Cannabinoid receptor 1; experiment: SAR analysis of antagonists of the Cannabinoid Receptor 1 using an Image-Based Assay - Set 2. [Related pubchem assays (depositor defined):AID2013, AID2026]; type: functional
Cannabinoid receptor 2 [12] = target: T4, Cannabinoid receptor 2; experiment: SAR analysis of antagonists of the Cannabinoid Receptor 2 using an Image-Based Assay. [Related pubchem assays (depositor defined):AID2013, AID2026]; type: functional
[13] = target: T2, G-protein coupled receptor 55; experiment: inhibition of LPI-stimulated GPR55 beta-arrestin translocation – imaging, U2OS, beta-arrestin-GFP, LPI agonist, primary screen (AID 2013); type: functional;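 note: antagonist potency measured as reduced agonist-driven arrestin aggregation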
[14] = target: T5, G-protein coupled receptor 35; experiment: SAR analysis of Antagonists of the GPR35 Receptor using an Image-Based Assay - Set 3. [Related pubchem assays (depositor defined):AID2013, AID2026]; type: functional
Hexokinase HKDC1 = target: T6, Hexokinase HKDC1 (Homo sapiens, UniProt Q2TB90); experiment: activation of HKDC1 glucose phosphorylation – biochemical, W721R variant, dose response (AID 504730); type: functional
T6 sequence (Q2TB90 whole entry): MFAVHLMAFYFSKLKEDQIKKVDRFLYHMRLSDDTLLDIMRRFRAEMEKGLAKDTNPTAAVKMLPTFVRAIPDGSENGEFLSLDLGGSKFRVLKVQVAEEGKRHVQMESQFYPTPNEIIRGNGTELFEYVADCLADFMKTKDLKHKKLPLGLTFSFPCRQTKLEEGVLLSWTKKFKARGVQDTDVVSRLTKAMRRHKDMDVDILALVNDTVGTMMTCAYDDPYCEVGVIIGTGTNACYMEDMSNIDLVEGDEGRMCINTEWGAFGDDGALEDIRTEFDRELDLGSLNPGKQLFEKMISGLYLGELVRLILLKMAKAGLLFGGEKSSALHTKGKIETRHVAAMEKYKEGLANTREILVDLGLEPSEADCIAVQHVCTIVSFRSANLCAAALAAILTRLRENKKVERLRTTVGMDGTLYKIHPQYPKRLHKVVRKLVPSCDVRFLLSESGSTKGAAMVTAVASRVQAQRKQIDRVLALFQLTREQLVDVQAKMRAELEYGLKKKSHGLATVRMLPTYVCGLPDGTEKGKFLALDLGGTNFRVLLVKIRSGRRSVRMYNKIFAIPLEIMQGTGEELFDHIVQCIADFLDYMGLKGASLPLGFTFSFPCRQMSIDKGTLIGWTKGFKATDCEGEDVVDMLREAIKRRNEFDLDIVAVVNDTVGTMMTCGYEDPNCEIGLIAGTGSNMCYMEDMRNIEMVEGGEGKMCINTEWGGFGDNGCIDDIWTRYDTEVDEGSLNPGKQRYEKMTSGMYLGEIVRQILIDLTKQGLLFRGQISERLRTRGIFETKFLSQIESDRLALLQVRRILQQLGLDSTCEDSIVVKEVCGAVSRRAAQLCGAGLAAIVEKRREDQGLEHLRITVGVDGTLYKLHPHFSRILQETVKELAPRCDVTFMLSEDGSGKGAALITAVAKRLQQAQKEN

Hexokinase-1 = Hexokinase-1 (Homo sapiens, UniProt P19367); experiment: HK1 enzyme activation by HKDC1 hits – biochemical, selectivity assay for HKDC1 activator project, dose response (AID 504762); type: functional
Chain of Hexokinase-1 (P19367 whole entry): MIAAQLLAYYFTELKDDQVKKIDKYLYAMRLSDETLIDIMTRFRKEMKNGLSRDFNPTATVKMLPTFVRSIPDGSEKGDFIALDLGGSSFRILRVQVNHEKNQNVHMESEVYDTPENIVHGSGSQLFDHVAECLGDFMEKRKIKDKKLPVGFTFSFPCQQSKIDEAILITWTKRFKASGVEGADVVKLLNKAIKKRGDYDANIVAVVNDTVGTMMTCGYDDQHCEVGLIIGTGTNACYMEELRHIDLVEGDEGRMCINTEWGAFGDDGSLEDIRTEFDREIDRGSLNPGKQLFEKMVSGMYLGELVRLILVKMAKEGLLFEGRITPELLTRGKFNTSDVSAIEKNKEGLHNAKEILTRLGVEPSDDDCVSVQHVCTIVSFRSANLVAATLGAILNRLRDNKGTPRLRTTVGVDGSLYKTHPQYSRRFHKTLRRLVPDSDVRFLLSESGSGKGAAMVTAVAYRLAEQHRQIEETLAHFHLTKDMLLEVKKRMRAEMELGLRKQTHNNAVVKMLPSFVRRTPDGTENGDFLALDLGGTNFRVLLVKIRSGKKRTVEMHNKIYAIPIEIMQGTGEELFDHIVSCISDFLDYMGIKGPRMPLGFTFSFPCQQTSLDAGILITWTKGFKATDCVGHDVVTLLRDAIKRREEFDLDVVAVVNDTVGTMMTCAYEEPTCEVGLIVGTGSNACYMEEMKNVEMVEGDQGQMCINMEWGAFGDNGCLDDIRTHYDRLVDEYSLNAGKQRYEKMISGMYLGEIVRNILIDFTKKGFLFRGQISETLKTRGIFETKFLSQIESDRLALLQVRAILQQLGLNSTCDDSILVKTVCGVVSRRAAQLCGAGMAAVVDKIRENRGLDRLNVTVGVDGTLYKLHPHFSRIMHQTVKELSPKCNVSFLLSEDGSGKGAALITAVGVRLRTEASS

[15] = target: T7, Intestinal-type alkaline phosphatase (Homo sapiens, UniProt P09923); experiment: Dose Response confirmation of uHTS hits from a small molecule inhibitors of human intestinal alkaline phosphatase via a luminescent assay. [Related pubchem assays (depositor defined):AID2544, AID2574]; type: functional
T7 sequence (P09923 whole entry): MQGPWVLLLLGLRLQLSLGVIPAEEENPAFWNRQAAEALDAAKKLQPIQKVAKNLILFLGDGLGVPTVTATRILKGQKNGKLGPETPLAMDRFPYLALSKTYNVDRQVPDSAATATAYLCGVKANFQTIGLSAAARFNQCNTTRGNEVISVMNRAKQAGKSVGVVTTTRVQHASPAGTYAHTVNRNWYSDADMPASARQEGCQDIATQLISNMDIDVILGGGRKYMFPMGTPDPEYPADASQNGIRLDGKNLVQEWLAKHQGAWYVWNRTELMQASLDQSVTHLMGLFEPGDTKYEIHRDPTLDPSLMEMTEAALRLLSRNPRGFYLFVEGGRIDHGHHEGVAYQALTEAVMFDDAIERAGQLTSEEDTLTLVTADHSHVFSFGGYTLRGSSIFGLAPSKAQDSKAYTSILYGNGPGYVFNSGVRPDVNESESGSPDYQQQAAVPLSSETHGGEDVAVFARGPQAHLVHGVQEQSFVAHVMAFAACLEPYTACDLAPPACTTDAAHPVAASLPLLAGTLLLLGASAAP

[16] = target: T7, Intestinal-type alkaline phosphatase; experiment: human intestinal alkaline phosphatase activators, dose response, biochemical, luminescence, uHTS hits (AID 463120); type: functional
[17] = target: T8, Carboxy-terminal domain RNA polymerase II polypeptide A small phosphatase 1 (Homo sapiens, UniProt Q9GZU7); experiment: CTDSP1 inhibitors, concentration-response, biochemical, absorbance readout, ultra-high-throughput screen actives (AID 540297); type: functional
T8 sequence (Q9GZU7 whole entry): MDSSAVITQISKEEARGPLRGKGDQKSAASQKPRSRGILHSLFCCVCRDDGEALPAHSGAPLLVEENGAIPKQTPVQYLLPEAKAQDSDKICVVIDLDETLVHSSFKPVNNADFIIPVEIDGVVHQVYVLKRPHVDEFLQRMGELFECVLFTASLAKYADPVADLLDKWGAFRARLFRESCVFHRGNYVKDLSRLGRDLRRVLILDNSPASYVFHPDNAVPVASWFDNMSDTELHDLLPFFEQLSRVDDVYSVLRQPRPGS

SUMO-activating enzyme [18] = target: T9, SUMO-activating enzyme (Homo sapiens, UniProt Q9UBT2); experiment: blockers of SAE1/SAE2–UBC9 SUMO transfer – biochemical, HTRF, uHTS, primary screen (AID 2006); type: protein-complex assay
T9 sequence (Q9UBE0 whole entry): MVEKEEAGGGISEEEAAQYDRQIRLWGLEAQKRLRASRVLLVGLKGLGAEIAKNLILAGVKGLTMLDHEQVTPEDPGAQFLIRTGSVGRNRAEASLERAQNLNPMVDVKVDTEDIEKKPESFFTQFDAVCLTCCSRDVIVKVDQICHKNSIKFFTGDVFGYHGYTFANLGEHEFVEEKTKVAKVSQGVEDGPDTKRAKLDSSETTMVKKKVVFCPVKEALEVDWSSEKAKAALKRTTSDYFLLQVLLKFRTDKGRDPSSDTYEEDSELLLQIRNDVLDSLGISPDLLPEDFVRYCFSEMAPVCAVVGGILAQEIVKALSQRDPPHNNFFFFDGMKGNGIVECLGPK
T9 sequence (Q9UBT2 whole entry): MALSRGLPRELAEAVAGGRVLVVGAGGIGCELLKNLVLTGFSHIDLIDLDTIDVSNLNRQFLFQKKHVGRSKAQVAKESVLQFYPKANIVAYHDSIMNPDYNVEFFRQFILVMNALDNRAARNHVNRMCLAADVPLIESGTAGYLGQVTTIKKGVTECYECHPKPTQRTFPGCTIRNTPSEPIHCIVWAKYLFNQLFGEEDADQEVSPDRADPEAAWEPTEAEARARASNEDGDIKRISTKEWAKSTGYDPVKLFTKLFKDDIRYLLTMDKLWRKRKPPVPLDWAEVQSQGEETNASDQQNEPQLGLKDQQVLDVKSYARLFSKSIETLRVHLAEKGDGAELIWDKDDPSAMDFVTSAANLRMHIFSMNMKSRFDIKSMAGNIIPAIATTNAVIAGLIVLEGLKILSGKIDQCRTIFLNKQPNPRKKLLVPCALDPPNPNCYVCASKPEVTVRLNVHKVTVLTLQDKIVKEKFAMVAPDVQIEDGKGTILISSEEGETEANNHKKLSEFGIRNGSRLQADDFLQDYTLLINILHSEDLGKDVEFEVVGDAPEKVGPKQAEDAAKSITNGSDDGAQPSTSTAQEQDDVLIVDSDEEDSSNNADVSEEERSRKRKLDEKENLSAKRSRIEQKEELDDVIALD

Streptokinase A = target: T10, Streptokinase A (Streptococcus pyogenes serotype M1, UniProt P10520); experiment: viability-normalized secreted streptokinase activity reduction – plasminogen activation absorbance, OD405, dose response (AID 1914); type: functional, Streptococcus pyogenes M1 GAS;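 note: secreted streptokinase activity via plasminogen activation per viability signal from cell pellet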
T10 sequence (P10520 whole entry): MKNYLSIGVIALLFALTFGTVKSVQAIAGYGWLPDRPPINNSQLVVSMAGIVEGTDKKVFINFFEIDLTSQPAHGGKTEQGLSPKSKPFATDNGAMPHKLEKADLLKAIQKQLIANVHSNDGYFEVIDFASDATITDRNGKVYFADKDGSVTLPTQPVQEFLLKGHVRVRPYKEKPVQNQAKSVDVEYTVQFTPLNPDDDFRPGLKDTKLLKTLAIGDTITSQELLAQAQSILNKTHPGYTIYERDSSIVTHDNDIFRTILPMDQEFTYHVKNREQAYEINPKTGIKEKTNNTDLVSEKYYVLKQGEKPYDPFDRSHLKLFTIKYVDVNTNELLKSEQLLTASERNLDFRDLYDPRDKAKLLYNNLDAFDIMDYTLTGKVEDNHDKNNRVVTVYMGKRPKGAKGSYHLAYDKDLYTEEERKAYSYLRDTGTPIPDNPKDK

[19] = viability of HCT116 lacking mutant beta-catenin – cell-based, human colon tumor, dose response (AID 1045); type: functional;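 note: HCT116 colon tumor cells with beta catenin knocked out; cells exposed to compound for 60 hours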
[20] = viability of PTEN-deleted HCT116 cells – cell-based, HCT116 PTEN knockout, dose response (AID 1047); type: functional;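 note: HCT116 colon tumor cells with PTEN knocked out; cells exposed to compound for 60 hours before readout; potency for loss of cell viability measured by luminescence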
SUMO-activating enzyme [21] = target: T9, SUMO-activating enzyme; experiment: blockers of UBC9-mediated SUMO conjugation – biochemical, AlphaScreen, SUMOylation inhibitor project, confirmation (AID 2018); type: functional
Protein Tat = target: T11, Protein Tat (Human immunodeficiency virus type 1 group M subtype B (isolate HXB2)(HIV-1), UniProt P04608); type: functional;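 note: tat binding to TAR RNA read out by fluorescence polarization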
T11 sequence (P04608 whole entry): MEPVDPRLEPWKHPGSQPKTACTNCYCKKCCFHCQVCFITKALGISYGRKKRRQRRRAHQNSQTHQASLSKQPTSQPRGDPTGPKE

[22] = target: T12, Type-1 angiotensin II receptor (Homo sapiens, UniProt P30556); experiment: agonist activity at AGTR1 – cell-based, uHTS hits, selectivity assay for APJ receptor agonist project, dose response (AID 488865); type: functional;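 note: beta-arrestin recruitment to AT1 measured by enzyme fragment complementation luminescence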
T12 sequence (P30556 whole entry): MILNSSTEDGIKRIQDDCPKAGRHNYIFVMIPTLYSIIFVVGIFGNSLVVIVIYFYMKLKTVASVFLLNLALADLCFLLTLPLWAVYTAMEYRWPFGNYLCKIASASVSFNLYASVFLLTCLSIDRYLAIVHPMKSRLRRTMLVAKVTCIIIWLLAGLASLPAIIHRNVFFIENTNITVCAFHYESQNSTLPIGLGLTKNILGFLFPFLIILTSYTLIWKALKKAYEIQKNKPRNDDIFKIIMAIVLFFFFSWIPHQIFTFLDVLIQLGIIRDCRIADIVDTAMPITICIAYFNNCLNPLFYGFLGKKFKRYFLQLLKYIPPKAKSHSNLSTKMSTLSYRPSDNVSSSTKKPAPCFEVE
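Throughout, for AC50: cells exposed to compound for roughly 70 hours or longer before luminescence read.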

SMILES: CN(C(=O)COC(=O)/C=C/c1cccc([N+](=O)[O-])c1)C1CCS(=O)(=O)C1 (stereo not given)
- CC50 [1]: 11.4 µM (active)
- IC50 (DLD-1 [2]): 3.57 µM (active)
- IC50 (DLD-1 [3]): 2.25 µM (active)
- AC50 [4]: 1.43 µM (active)
- IC50 [5]: 32.3 µM (not active)

SMILES: O=C(Oc1ccc(Cl)c2cccnc12)c1ccco1
- EC50 (Streptococcus): 11.6 µM (active)
- EC50 [6]: 3.93 µM (active)
- IC50 (Coagulation factor XII): 21.6 µM (active)

SMILES: Cc1cccn2c(=O)c3cc(C(=O)NC4CCCC4)c(=N)n(C4CCCC4)c3nc12
- IC50 [7]: 0.965 µM (active)
- EC50 (Cannabinoid receptor 1 [8]): > 32 µM (inactive)
- EC50 (Cannabinoid receptor 2 [9]): > 32 µM (inactive)
- EC50 [10]: > 32 µM (inactive)
- IC50 (Cannabinoid receptor 1 [11]): > 32 µM (inactive)
- IC50 (Cannabinoid receptor 2 [12]): > 32 µM (inactive)
- IC50 [13]: 1.24 µM (active)
- IC50 [14]: > 32 µM (inactive)

SMILES: Cn1c(-c2ccccc2)c(C(=O)CC#N)c2ccccc21
- EC50 (Hexokinase HKDC1): 39.2 µM (inactive)
- EC50 (Hexokinase-1): 32 µM (inactive)

SMILES: COc1cccc(-c2nc(CS(=O)(=O)CC(=O)Nc3cc(OC)ccc3OC)c(C)o2)c1
- IC50 [15]: > 100 µM (inactive)
- EC50 [16]: > 100 µM (inactive)

SMILES: COc1ccccc1-n1cnc2c(c1=O)c1nc3ccccc3nc1n2-c1ccc(C)c(C)c1
- IC50 [17]: 7.53 µM (active)
- IC50 (SUMO-activating enzyme [18]): 15.4 µM (active)
- EC50 (Streptokinase A): > 150 µM (not active)
- EC50 (Streptococcus): 59 µM (active)
- EC50 [19]: 20.2 µM (active)
- EC50 [6]: 11.2 µM (active)
- EC50 [20]: 19.2 µM (active)
- IC50 (SUMO-activating enzyme [21]): 5.24 µM (active)

SMILES: COc1ccc2[nH]c(=O)c(CN(Cc3ccco3)C(c3nnnn3Cc3ccccc3)C(C)C)cc2c1 (stereo not given)
- IC50 (Protein Tat): > 100 µM (active)
- EC50 [22]: > 100 µM (inactive)

Source: ChEMBL document CHEMBL1201862, “PubChem BioAssay data set” (2004)
